Data taken from patent publication US7226766B2, “S-methylcysteine, S-ethylcysteine, and related S-alkylthiols as antagonists to the effects of S-nitrosothiols and nitric oxide” (University of Iowa Research Foundation, priority 2001, dated 2007).

Experiments:
[1] = tested on: Sprague-Dawley rats treated with lipopolysaccharide (septic shock model); test: experimental model of septic shock: lipopolysaccharide-treated conscious rats, hemodynamic measurements and deaths; format: in vivo, rat; details: for number of treated rats that died: lipopolysaccharide-treated rats, 22 rats received L-NAME, 12 rats S-methyl cysteine; for mean arterial pressure after treatment: rats 72 hours after lipopolysaccharide 0.5 mg/kg i.p., L-NAME 25 μmole/kg or S-methyl-L-cysteine 200 nmol/kg infusion for 10 minutes + 500 nmol/kg bolus; for total peripheral resistance after treatment (in words): L-NAME 25 μmole/kg or S-methyl-L-cysteine 200 nmol/kg infusion + 500 nmol/kg bolus
Description: Male 16 week old Sprague-Dawley rats were anesthetized for surgical placement of intraaortic pressure tranducers and Dopplar flow probes around the abdominal aorta and the left main coronary artery. After 48 hours of recovery baseline measurements of arterial blood pressure, cardiac output (as Dopplar flow), and coronary blood flow (Dopplar) were obtained in conscious unrestrained animals. The rats were then treated with intraperotoneal injections of purified lipopolysaccharide 0.5 mg/kg. After 72 hours when the induction of iNOS had produced a fall in blood pressure, measurements were repeated. Each rat then received either 25 μmole/kg of the nitric oxide synthase inhibitor L-NAME or an infusion of 200 nmol/kg of S-methyl-L-cysteine for 10 minutes followed by a 500 nmol/kg bolus dose of S-methyl-L-cysteine. The measurements were then repeated a third time.

[2] = tested on: hypotensive effects of infused S-nitrosocysteine; test: inhibition of the hypotensive effects of infused S-nitrosocysteine; details: in vivo
[3] = rats 72 hours after lipopolysaccharide, L-NAME 25 μmole/kg
[4] = rats 72 hours after lipopolysaccharide

Row | SMILES | number of treated rats that died [1] | mean arterial pressure after treatment [1] | coronary resistance after treatment [1, 3] | heart rate after treatment [1, 3] | total peripheral resistance after treatment [1, 3] | total peripheral resistance after treatment (in words) [1, 4] | coronary blood flow after treatment ([1]; rats 72 hours after lipopolysaccharide, L-NAME 25 μmole/kg, Doppler) | cardiac output after treatment ([1]; rats 72 hours after lipopolysaccharide, L-NAME 25 μmole/kg, Doppler flow) | effect on the hypotensive effects of infused S-nitrosocysteine [2] | mean arterial pressure after treatment ([1]; listed as S-methyl cysteine) | coronary blood flow after treatment (in words) ([1]; rats 72 hours after lipopolysaccharide, S-methyl-L-cysteine 200 nmol/kg infusion for 10 minutes + 500 nmol/kg bolus)
1 | COC(=O)[C@@H](N)CCCNC(=N)N[N+](=O)[O-] [L-NAME, Nω-nitro-L-arginine methyl ester, reference compound] | 7 | returned mean arterial pressure to baseline values | about 160 % of baseline values | about 60 % of the pre-treatment values | about 160 % of baseline values | increased total peripheral resistance far above normal | about 60 % of the pre-treatment values | about 60 % of the pre-treatment values | – | – | –
2 | CSC[C@H](N)C(=O)O [S-methyl-L-cysteine] | none died | attenuated the hypotension induced by lipopolysaccharide | – | – | – | returned to normal values | – | – | inhibit the hypotensive effects of infused S-nitrosocysteine | returned mean arterial pressure to baseline values | to pre-treatment values
